Source: ChEMBL document CHEMBL1201862, “PubChem BioAssay data set” (2004)
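The compound was tested at five concentrations on cells cultured in 96-well plates, with a 48-hour exposure period. At the GI50, growth is halved.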 Calls of active or inactive are those of the source. No stated cut-off is given here; in the data, active = GI50 up to about 1.1 µM and inactive = higher.

Legend:
Assay in all cases: NCI anticancer screen, dose series, 48 h
SK-MEL-28 = test system: SK-MEL-28
LOX IMVI = test system: LOX IMVI
NCI-H23 = test system: NCI-H23
SW-620 = test system: SW-620
M14 = test system: M14
SF-295 = test system: SF-295
UACC-62 = test system: UACC-62
NCI-H460 = test system: NCI-H460
HT-29 = test system: HT-29
RPMI-8226 = test system: RPMI-8226
A549 = test system: A549
SK-MEL-5 = test system: SK-MEL-5
Hs-578T = test system: Hs-578T
OVCAR-5 = test system: OVCAR-5
SF-539 = test system: SF-539
OVCAR-8 = test system: OVCAR-8
A498 = test system: A498
DU-145 = test system: DU-145
SK-MEL-2 = test system: SK-MEL-2

Measured: GI50

CC(=O)NC(C)(C)C1CCC(C)CC1 (stereo unspecified)
inactive: SK-MEL-28 > 100 µM | LOX IMVI > 100 µM | NCI-H23 > 100 µM | SW-620 > 100 µM | M14 > 100 µM | SF-295 > 100 µM | UACC-62 > 100 µM | NCI-H460 > 100 µM | HT-29 > 100 µM | RPMI-8226 > 100 µM | A549 > 100 µM | SK-MEL-5 > 100 µM | Hs-578T 48.9 µM | OVCAR-5 > 100 µM | SF-539 > 100 µM | OVCAR-8 > 100 µM | A498 > 100 µM | DU-145 > 100 µM

CN1CCN(Cc2nc3c(s2)CCc2sccc2-3)CC1
inactive: SK-MEL-28 25.4 µM | NCI-H23 > 100 µM | SW-620 > 100 µM | M14 28.4 µM | SF-295 73.1 µM | UACC-62 24.8 µM | NCI-H460 > 100 µM | HT-29 32.7 µM | RPMI-8226 > 100 µM | A549 > 100 µM | SK-MEL-5 36.4 µM | Hs-578T > 100 µM | OVCAR-5 > 100 µM | OVCAR-8 94.6 µM | A498 12.7 µM | SK-MEL-2 > 100 µM | DU-145 > 100 µM

N#CC(c1ccccc1)N(CCCCCCN(C(=O)c1ccccc1)C(C#N)c1ccccc1)C(=O)c1ccccc1 (stereo unspecified)
inactive: SK-MEL-28 44.4 µM | LOX IMVI 29.3 µM | NCI-H23 26.2 µM | SW-620 39.3 µM | M14 41.2 µM | SF-295 27.9 µM | UACC-62 26.3 µM | NCI-H460 27.6 µM | HT-29 21.8 µM | A549 40.7 µM | SK-MEL-5 17.9 µM | Hs-578T 26.1 µM | OVCAR-5 > 100 µM | SF-539 41.5 µM | OVCAR-8 30.1 µM | A498 15 µM | SK-MEL-2 23.6 µM | DU-145 41.3 µM

O=S(=O)(Nc1nccs1)c1ccc([As](=O)(O)O)cc1
inactive: SK-MEL-28 > 100 µM | LOX IMVI > 100 µM | NCI-H23 > 100 µM | SW-620 > 100 µM | M14 > 100 µM | SF-295 > 100 µM | UACC-62 > 100 µM | NCI-H460 > 100 µM | HT-29 > 100 µM | RPMI-8226 > 100 µM | A549 > 100 µM | SK-MEL-5 > 100 µM | Hs-578T > 100 µM | OVCAR-5 > 100 µM | OVCAR-8 > 100 µM | A498 > 100 µM | SK-MEL-2 > 100 µM | DU-145 > 100 µM
